≈ marks a conversion by molar mass, not a printed value.
Key:
[1] = target: T1, mPiezo1 (Mus musculus, UniProt E2JF22); assay: Cell-attached patch with pressure clamp (stretch-activated currents); format: cell-based; conditions: absence of externally applied pressure, compound in pipette, vs DMSO
T1 construct: The full-length mPiezo1 has 2547 amino acids in each monomer; expressed in transfected cells; host or cells: HEK293T

[2] = target: T1, mPiezo1; assay: Fura-2 single-cell Ca2+ imaging of mPiezo1-mCherry-transfected HEK293T cells; format: cell-based; conditions: for Ca2+ response (Fura-2 ratio): mCherry-positive HEK293T cells transfected with mPiezo1-mCherry
Description: (§1) Fura-2 single-cell Ca^2+ imaging was performed according to the previous protocol. In brief, mCherry-Piezo1 cDNA (1 μg)-transfected HEK293T cells were plated onto 12-mm round glass coverslips, which were coated with poly-D-lysine and placed in 24-well plates, and subject to Fura-2 single-cell Ca^2+ imaging about 36 h post transfection. Cells were washed with buffer containing 1× HBSS (1.3 mM Ca^2+) and 10 mM HEPES (pH 7.2), incubated with 2.5 μM Fura-2 and 0.05% Pluronic F-127 (Life Technologies) for 30 min, then washed again with the previously mentioned buffer. The coverslip was mounted into an inverted Nikon-Tie microscope equipped with a CoolSNAP charge-coupled devise (CCD) camera and Lambda XL light box (Sutter Instrument), and mCherry-positive and -negative cells were selected for measurement of the 340/380 ratio with a ×20 objective (numerical aperture 0.75) using the MetaFluor Fluorescence Ratio Imaging software (Molecular Device).

[3] = Water solubility; format: physicochemical; conditions: up to
[4] = target: T2, C-terminal extracellular domain (CED; 2214–2457) (Mus musculus, UniProt E2JF22); assay: SPR binding to immobilized purified protein; conditions: without C12E10 detergent
T2 construct: C-terminal extracellular domain (CED; 2214–2457); made in house
T2 sequence (E2JF22 2214-2457): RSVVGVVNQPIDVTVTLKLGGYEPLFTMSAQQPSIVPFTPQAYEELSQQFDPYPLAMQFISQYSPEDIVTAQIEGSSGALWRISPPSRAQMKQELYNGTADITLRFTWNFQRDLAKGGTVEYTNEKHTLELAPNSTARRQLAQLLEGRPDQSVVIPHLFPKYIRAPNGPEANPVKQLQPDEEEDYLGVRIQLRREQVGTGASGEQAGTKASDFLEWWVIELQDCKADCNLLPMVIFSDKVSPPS
Description: Real-time binding and analysis by SPR were conducted on BIAcore T200 instrument (GE Healthcare) at 25 °C. Proteins were immobilized on a research-grade CM5 sensor chip by amine-coupling methods. During the pH scouting process, 10 mM sodium acetate at various pH including 4.0, 4.5, 5.0, and 5.5 and protein concentrations varying between 10 and 100 μg/ml were screened before immobilization. Except pH 4.5 for mPiezo1-(1–2190), pH 5.0 was used for all other proteins, including mPiezo1, CED, Δ15-16, and Δ19-20. All proteins were diluted to 50 μg/ml in buffer containing 10 mM sodium acetate at the abovementioned pH, 0.026% C12E10 detergent, and 150 mM NaCl, except that the soluble CED proteins, which were diluted in 150 mM NaCl without detergent. During the immobilization process, the CM5 sensor was activated with NHS first, allowing the amine-containing proteins to be coupled to the sensor through NHS. Each CM5 sensor had 4 flow cells, and the flow cells 1 and 3 were often left blank as a reference. Diluted Piezo1 wild-type or mutant proteins (50 μg/ml) in their respective buffers were immobilized on the flow cell 2 or flow cell 4 to the similar level as indicated by the “response bound” parameter.
(§2) For data collection, compounds at various concentrations were diluted in a running buffer containing 1× PBS, 0.026% detergent C12E10, and 0.05% Surfactant P20 (GE Healthcare Bio-Sciences AB) and injected over the flow cells with at a 30 μl/min flow rate. The proteins and the compounds were allowed to associate for 180 s and then dissociate for 180 s. Data were analyzed with the BIAcore T200 evaluation software by fitting to a 1:1 affinity-binding model.

[5] = target: T3, mPiezo1(1–2190) (Mus musculus, UniProt E2JF22); assay: SPR binding to immobilized purified protein; conditions: FPLC fraction of trimeric proteins
T3 construct: N-terminal fragment containing residues 1–2190 [mPiezo1(1–2190)]; GST (PreScission site) (cleaved yes); made in house; host or cells: HEK293T
From the text: Since Jedi1/2 act through the extracellular side of Piezo1, we asked if it might bind to the C-terminal extracellular domain (CED; 2214–2457) that trimerizes to form the extracellular Cap-structure of the central ion-conducting pore module (Fig. 1)[8]. However, none of Jedi1/2, Yoda1, and the control compound bound to the purified CED proteins (without the use of the C12E10 detergent since they are soluble proteins; Fig. 4a–h). We next purified the large N-terminal fragment containing residues 1–2190 [mPiezo1(1–2190)] using the same purification procedure for mPiezo1. […] We used the FPLC fraction corresponding to the trimeric proteins (peak 2 of Supplementary Fig. 2d) for SPR binding assay. […] Given that Jedi1/2 function through the extracellular side, we propose that Jedi1/2 bind to the extracellular loop regions of the blade. The distant location of the Jedi action region relative to the pore indicates a distinct long-distance allosteric gating of Piezo1.
Real-time binding and analysis by SPR were conducted on BIAcore T200 instrument (GE Healthcare) at 25 °C. Proteins were immobilized on a research-grade CM5 sensor chip by amine-coupling methods. During the pH scouting process, 10 mM sodium acetate at various pH including 4.0, 4.5, 5.0, and 5.5 and protein concentrations varying between 10 and 100 μg/ml were screened before immobilization. Except pH 4.5 for mPiezo1-(1–2190), pH 5.0 was used for all other proteins, including mPiezo1, CED, Δ15-16, and Δ19-20. All proteins were diluted to 50 μg/ml in buffer containing 10 mM sodium acetate at the abovementioned pH, 0.026% C12E10 detergent, and 150 mM NaCl, except that the soluble CED proteins, which were diluted in 150 mM NaCl without detergent. […]
as §2, with “The proteins and the compounds were allowed to associate for 180 s and then dissociate for 180 s.” left out

[6] = target: T1, mPiezo1; assay: Whole-cell patch clamp, gap-free recording, compound puffed onto cells; format: cell-based; conditions: for compound-evoked whole-cell current: mPiezo1-mRuby2-expressing HEK293T, 1 mM Jedi1 or 30 μM Yoda1 puffed
Description: Protocols for HEK293T cell culture, transient transfection, and patch-clamp experiments with an Axopatch 200B amplifier (Axon Instruments) or HEKA EPC10 were essentially similar to how previously described[6],[8]. […] The extracellular solution was composed of (in mM) 133 NaCl, 3 KCl, 2.5 CaCl2, 1 MgCl2, 10 HEPES (pH 7.3 with NaOH), and 10 glucose. All experiments were carried out at room temperature. Currents were sampled at 20 kHz, filtered at 2 kHz using the Clampex 10.4 software (Axon Instruments) or Patchmaster software. Leak currents before mechanical stimulations were subtracted offline from the current traces.
Stock solutions of Jedi1 (100 mM), Jedi2 (100 mM), and Yoda1 (30 mM) were solubilized in DMSO and diluted to the desired final concentrations as indicated in the figure legends using external or internal solutions. In Figs. 3a, 5b, and 6e, the compound solutions were puffed onto the cells using a multichannel perfusion system (MPS-2, World Precision Instruments) while continuously recording using a gap-free mode. In other conditions, the compounds were directly added to the recording chamber or pipette solution, and the currents were recorded within 10 min. In Figs. 5b and 6e, we used the Piezo1-KO-HEK cell line in which the endogenous Piezo1 gene is disrupted.

[7] = target: T4, mPiezo1 Q1344A (Mus musculus, UniProt E2JF22, Q1344A); assay: Fura-2 single-cell Ca2+ imaging, Q1344A mutant; format: cell-based; conditions: 1 mM Jedi1, 30 µM Yoda1
T4 construct: The full-length mPiezo1 has 2547 amino acids in each monomer; mCherry; expressed in transfected cells; host or cells: HEK293T
Description: as §1

T3 sequence (E2JF22 1-2190): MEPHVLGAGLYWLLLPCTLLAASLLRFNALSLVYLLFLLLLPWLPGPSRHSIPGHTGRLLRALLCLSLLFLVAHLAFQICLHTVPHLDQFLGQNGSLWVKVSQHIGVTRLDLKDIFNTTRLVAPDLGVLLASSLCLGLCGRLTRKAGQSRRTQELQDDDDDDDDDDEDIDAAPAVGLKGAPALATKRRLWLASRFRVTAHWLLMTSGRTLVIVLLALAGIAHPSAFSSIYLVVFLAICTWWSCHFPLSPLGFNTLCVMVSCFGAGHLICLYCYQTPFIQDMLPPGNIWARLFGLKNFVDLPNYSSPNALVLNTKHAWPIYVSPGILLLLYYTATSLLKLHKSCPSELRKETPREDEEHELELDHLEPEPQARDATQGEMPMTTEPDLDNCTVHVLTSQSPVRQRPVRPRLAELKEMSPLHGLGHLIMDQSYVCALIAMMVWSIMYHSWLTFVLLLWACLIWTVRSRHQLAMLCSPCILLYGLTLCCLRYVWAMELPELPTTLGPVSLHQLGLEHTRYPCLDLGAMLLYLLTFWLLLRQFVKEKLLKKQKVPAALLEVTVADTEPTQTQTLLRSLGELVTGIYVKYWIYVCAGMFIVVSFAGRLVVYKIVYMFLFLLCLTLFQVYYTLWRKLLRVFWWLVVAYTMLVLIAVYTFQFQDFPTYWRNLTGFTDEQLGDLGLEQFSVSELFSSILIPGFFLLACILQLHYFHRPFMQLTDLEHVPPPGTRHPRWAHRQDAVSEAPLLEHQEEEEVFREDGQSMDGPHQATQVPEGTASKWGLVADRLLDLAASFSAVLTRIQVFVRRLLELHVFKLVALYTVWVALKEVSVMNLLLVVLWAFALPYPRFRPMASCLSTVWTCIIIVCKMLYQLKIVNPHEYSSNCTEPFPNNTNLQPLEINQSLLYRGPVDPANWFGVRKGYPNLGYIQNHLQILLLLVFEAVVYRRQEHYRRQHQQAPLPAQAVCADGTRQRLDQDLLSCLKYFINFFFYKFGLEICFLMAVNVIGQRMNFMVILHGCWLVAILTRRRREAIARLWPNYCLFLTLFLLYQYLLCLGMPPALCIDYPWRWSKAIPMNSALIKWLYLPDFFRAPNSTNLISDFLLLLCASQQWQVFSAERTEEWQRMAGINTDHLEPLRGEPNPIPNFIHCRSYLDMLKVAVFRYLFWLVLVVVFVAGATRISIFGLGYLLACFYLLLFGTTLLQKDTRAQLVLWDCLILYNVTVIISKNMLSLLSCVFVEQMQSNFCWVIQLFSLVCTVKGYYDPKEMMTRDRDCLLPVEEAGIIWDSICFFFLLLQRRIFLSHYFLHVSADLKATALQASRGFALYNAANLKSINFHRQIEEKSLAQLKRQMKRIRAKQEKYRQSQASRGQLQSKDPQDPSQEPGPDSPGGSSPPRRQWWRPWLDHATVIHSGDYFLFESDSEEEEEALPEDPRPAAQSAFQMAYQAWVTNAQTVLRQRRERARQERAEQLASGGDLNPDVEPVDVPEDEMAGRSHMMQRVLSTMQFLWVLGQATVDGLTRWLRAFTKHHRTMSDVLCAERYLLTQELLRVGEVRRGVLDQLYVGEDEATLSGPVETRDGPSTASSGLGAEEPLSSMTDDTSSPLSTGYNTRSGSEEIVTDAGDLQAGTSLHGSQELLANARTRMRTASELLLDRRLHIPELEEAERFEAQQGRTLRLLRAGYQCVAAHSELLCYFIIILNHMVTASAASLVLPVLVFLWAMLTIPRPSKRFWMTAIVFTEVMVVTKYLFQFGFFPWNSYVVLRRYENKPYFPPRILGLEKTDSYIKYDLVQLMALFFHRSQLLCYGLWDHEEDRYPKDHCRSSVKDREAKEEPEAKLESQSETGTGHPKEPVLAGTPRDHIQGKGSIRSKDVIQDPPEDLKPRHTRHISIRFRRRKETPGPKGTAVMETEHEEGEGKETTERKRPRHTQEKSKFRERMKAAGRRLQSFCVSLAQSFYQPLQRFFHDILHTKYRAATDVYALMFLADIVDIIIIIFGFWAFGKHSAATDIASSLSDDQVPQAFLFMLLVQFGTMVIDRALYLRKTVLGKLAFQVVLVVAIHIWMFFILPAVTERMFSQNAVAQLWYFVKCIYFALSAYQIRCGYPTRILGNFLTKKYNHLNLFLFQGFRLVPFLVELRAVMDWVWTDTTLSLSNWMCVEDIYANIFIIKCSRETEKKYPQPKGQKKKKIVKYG
T1 sequence (E2JF22 whole entry): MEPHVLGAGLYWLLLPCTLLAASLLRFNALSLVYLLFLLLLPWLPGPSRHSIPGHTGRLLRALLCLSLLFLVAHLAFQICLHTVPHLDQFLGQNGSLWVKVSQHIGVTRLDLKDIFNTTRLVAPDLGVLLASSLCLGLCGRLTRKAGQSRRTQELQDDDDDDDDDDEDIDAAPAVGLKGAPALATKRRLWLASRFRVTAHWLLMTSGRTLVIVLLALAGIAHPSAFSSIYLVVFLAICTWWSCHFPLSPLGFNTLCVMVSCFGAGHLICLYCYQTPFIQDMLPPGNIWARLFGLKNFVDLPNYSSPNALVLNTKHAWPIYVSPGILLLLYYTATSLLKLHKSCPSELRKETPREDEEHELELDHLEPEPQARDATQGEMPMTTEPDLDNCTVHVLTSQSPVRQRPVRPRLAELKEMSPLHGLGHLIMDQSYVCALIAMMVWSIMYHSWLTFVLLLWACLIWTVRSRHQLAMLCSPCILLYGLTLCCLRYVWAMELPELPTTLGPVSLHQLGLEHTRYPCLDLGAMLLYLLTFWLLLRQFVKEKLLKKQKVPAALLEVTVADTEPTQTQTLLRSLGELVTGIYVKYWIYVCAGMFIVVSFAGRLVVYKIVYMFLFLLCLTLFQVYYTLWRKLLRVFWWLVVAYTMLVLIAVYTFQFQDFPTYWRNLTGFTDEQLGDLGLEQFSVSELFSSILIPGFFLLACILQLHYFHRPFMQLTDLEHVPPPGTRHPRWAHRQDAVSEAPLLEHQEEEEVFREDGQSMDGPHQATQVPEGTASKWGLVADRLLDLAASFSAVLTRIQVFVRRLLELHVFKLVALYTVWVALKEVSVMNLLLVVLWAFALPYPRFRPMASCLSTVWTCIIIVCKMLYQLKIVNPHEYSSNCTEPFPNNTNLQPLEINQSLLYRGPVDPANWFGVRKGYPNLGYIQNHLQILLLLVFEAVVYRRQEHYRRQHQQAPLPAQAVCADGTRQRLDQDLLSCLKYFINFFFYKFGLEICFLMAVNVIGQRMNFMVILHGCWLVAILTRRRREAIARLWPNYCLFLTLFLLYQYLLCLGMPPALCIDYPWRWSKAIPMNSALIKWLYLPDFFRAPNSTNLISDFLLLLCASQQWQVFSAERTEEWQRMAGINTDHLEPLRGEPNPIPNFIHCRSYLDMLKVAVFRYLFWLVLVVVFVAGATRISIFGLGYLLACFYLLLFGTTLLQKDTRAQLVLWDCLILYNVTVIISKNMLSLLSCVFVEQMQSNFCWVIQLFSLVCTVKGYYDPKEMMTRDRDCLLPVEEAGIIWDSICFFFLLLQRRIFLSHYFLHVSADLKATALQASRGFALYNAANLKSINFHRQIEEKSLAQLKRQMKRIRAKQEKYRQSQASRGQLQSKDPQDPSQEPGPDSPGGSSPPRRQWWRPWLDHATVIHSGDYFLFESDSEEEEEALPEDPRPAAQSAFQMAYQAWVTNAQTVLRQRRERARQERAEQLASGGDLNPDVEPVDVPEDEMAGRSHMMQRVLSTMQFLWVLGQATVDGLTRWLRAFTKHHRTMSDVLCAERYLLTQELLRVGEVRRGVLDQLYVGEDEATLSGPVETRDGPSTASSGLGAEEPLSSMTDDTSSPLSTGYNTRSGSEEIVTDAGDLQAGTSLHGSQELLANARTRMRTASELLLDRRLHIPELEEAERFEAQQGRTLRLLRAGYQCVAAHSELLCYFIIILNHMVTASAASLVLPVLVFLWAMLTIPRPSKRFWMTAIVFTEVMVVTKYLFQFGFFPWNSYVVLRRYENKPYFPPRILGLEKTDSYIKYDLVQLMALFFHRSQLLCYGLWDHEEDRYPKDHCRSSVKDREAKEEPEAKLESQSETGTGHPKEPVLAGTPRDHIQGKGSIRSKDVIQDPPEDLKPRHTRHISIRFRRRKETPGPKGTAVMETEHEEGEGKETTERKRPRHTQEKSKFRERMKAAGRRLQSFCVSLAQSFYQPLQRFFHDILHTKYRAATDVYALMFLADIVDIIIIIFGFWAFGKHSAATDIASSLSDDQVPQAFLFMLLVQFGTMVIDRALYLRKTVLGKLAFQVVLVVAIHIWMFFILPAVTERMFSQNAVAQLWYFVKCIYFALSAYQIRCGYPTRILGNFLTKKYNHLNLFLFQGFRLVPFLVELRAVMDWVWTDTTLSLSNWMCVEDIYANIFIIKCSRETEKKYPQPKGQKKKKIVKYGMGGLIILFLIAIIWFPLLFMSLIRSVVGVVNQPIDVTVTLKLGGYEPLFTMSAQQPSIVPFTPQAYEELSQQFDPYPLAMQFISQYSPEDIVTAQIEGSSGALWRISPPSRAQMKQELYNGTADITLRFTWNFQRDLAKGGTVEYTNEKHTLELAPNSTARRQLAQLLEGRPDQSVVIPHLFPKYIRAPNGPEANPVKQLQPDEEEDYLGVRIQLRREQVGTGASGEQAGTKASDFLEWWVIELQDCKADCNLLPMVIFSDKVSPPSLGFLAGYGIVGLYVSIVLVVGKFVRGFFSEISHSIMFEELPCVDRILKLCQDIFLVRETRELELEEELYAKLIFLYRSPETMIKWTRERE
T4 sequence (E2JF22 whole entry Q1344A): as the sequence (E2JF22 whole entry) above, with Q1344A counted along it

| SMILES | fold change of NPo [1] | Ca2+ response (Fura-2 ratio) [2] | solubility [3] | binding to purified CED proteins (SPR) [4] | binding to mPiezo1(1–2190) proteins (SPR) [5] | onset and decay of evoked currents relative to Yoda1-induced currents ([6]; 1 mM Jedi1 vs 30 μM Yoda1) | compound-evoked whole-cell current [6] | effect of the Q1344A mutation on compound-induced Ca2+ responses [7] | time course of the induced Ca2+ response ([2]; Fura-2 single-cell imaging) |
| --- | --- | --- | --- | --- | --- | --- | --- | --- | --- |
| Cc1oc(-c2ccccc2)cc1C(=O)O [Jedi1] | 4.7 ± 1.4 fold | caused an increase in Ca^2+ | ~2000 µM (≈ 404 µg/mL) | none | virtually identical fashion as to mPiezo1 | more rapid onset and faster decay | evoked inward currents | did not affect |  |
| Cc1oc(-c2cccs2)cc1C(=O)O [Jedi2] |  | caused an increase in Ca^2+ | ~2000 µM (≈ 416 µg/mL) | none | virtually identical fashion as to mPiezo1 |  |  |  |  |
| Clc1cccc(Cl)c1CSc1nnc(-c2cnccn2)s1 [Yoda1, reference compound] | 3.1 ± 1.3 fold | also responded to Yoda1 |  | none | virtually identical fashion as to mPiezo1 |  | evoked inward currents | did not affect | slow activation, no decay, and poor reversibility |
